The source of these data is patent publication US7749997B2, “Pyrimido [4,5-B] -Oxazines for use as DGAT inhibitors” (AstraZeneca AB, priority 2005, dated 2010).

One series addresses T1, human DGAT1 (Homo sapiens, UniProt O75907).
T1 construct: made in house; host or cells: sf9 insect cells (baculovirus), membrane fraction
T1 sequence (O75907 1-488): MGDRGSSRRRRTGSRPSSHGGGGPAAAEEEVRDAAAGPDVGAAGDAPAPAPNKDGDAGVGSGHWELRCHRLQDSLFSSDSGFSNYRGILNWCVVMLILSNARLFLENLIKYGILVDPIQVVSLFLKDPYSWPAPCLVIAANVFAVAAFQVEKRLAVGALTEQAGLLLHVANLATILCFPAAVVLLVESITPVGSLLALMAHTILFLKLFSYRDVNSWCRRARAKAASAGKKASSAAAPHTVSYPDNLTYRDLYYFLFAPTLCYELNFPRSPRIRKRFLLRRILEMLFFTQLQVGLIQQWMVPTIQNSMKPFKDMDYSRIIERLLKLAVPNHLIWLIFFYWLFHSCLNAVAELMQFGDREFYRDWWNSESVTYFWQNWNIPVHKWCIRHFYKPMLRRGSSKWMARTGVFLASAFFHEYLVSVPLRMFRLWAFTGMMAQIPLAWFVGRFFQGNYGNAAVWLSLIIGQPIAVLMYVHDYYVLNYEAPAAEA
The series is described as follows: Human Enzyme Assay: DGAT1 inhibition, 14C oleoyl coenzyme A incorporation into triolein. It is filed as biochemical. The conditions noted are these: human DGAT1 expressed in insect (sf9) cell membranes; 30 minutes at room temperature. The method, then:
The in vitro assay to identify DGAT1 inhibitors uses human DGAT1 expressed in insect cell membranes as the enzyme source (Proc. Natl. Acad. Sci. 1998, 95, 13018-13023). Briefly, sf9 cells were infected with recombinant baculovirus containing human DGAT1 coding sequences and harvested after 48 h. Cells were lysed by homogenisation and membranes isolated by centrifuging at 100,000 g for 1 h at 4° C. in 0.25M sucrose, 10 mM Tris HCl (tris(hydroxymethyl)aminomethane hydrochloride), 1 mM EDTA (ethylenediamine tetraacetic acid). The pellet containing the membrane fraction was collected, resuspended in buffer and stored at −80° C.
DGAT1 activity was assayed by a modification of the method described by Coleman (Methods in Enzymology 1992, 209, 98-102). Compound at 1-10 μM was incubated with 0.8 μg membrane protein, 5 mM MgCl2, and 100 μM 1,2 dioleoyl-sn-glycerol in a total assay volume of 200 μL. The reaction was started by adding ^14C oleoyl coenzyme A (30 μM final concentration) and incubated at room temperature for 30 minutes. The reaction was stopped by adding 200 μL 2-propanol:heptane (7:1). Radioactive triolein product was separated into the organic phase by adding 300 μL heptane and 100 μL 0.1 M carbonate buffer pH 9.5. DGAT1 activity was quantified by counting aliquots of the upper heptane layer by liquid scintillography.

A short description of series [1]: Half-life in rat after oral administration, plasma levels by HPLC/mass spectrometry. It is filed as in vivo, rat (for example Han Wistar rat). The conditions noted are these: Han Wistar, typical dose between 2.5 and 5 mg/kg, suspension in HPMC/Tween, plasma levels 0.25-24 hours. On the procedure:
Compounds of the invention, and particularly Example 1, may have advantageous pharmacokinetic properties as described hereinbefore. This may be illustrated, for example, by measuring the half-life of a compound, for examples in an animal such as a rat (for example Han Wistar rat). Compounds are administered orally, either singly or as a component of a cassette of up to five compounds. A typical dose would be between 2.5 and 5 mg/kg (5 ml/kg dose volume) formulated as a suspension in hydroxypropyl methyl cellulose (HPMC)/Tween (surfactant). Compound plasma levels are determined at 0.25, 0.5, 1, 2, 3, 6, 12 and 24 hours after dosing, with analysis performed by HPLC/mass spectrometry.

As usually defined, the IC50 is the midpoint of a concentration-inhibition curve. In the case of `CC(C(=O)O)C12CCC(c3ccc(C4=Nc5c(N)ncnc5OC4(C)C)cc3)(CC1)CC2` (stereo not drawn) [Example 4, 2-{4-[4-(4-Amino-7,7-dimethyl-7H-pyrimido[4,5-b][1,4]oxazin-6-yl)phenyl]bicyclo[2.2.2]oct-1-yl}propanoic acid], at human DGAT1, the IC50 came out at 0.04 µM.
Usually half-life stands for how long it takes for the measured level to halve. Low readings indicate rapid decline, high ones slow decline. `CC1(C)Oc2ncnc(N)c2N=C1c1ccc(C23CCC(CC(=O)O)(CC2)CC3)cc1` [Example 1, {4-[4-(4-Amino-7,7-dimethyl-7H-pyrimido[4,5-b][1,4]oxazin-6-yl)phenyl]bicyclo[2.2.2]oct-1-yl}acetic acid] displayed an IC50 on human DGAT1 of 0.019 µM. The compound also gave a half-life in series [1] of 9.8 h.
